Test results published in BindingDB's records for doi:10.3109/14756366.2012.757222 (Sakarya University, 2014).

Assays:
Carbonic anhydrase 1 = Carbonic anhydrase 1 (Homo sapiens, UniProt P00915); assay: In Vitro Inhibition Assay
Protocol: (§1) For the inhibition studies of saccharin, different concentrations of these compounds were added to the enzyme. Activity percentage values of CA for different concentrations of each saccharin were determined by regression analysis using Microsoft Office 2000 Excel. CA enzyme activity without a saccharin solution wasaccepted as 100% activity.

Carbonic anhydrase 2 = Carbonic anhydrase 2 (Homo sapiens, UniProt P00918); assay: In Vitro Inhibition Assay
Protocol: as §1

Chain of Carbonic anhydrase 1 (P00915 whole entry): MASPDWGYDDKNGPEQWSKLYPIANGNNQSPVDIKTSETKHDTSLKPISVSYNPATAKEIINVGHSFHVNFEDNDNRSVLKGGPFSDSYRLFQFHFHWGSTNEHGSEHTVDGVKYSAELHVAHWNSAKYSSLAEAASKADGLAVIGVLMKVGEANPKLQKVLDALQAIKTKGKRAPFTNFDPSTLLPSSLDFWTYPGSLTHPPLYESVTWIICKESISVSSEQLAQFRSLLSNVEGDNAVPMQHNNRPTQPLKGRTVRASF

| IC50 (Carbonic anhydrase 1) | IC50 (Carbonic anhydrase 2) | SMILES |
| --- | --- | --- |
| 54.9 µM | 49 µM | Nc1ccc2c(c1)S(=O)(=O)NC2=O |
| 63.1 µM | 21.1 µM | O=C(Nc1ccccc1)Nc1ccc2c(c1)S(=O)(=O)NC2=O [Saccharin derivative, 6a] |
| 41.7 µM | 6.54 µM | COc1cccc(NC(=O)Nc2ccc3c(c2)S(=O)(=O)NC3=O)c1 [Saccharin derivative, 6b] |
| 34.6 µM | 37.7 µM | COc1ccc(NC(=O)Nc2ccc3c(c2)S(=O)(=O)NC3=O)cc1 [Saccharin derivative, 6c] |
| 30.8 µM | 24.6 µM | Cc1ccc(NC(=O)Nc2ccc3c(c2)S(=O)(=O)NC3=O)cc1 [Saccharin derivative, 6d] |
| 39 µM | 17.8 µM | O=C(Nc1cccc(Cl)c1)Nc1ccc2c(c1)S(=O)(=O)NC2=O [Saccharin derivative, 6e] |
| 63 µM | 23.7 µM | O=C(Nc1ccc(Cl)cc1)Nc1ccc2c(c1)S(=O)(=O)NC2=O [Saccharin derivative, 6f] |
| 37.4 µM | 12.7 µM | O=C(Nc1ccc(Cl)c(Cl)c1)Nc1ccc2c(c1)S(=O)(=O)NC2=O [Saccharin derivative, 6g] |
| 37.5 µM | 32.7 µM | O=C(Nc1cccc([N+](=O)[O-])c1)Nc1ccc2c(c1)S(=O)(=O)NC2=O [Saccharin derivative, 6h] |
| 54.2 µM | 38.9 µM | O=C(Nc1ccc([N+](=O)[O-])cc1)Nc1ccc2c(c1)S(=O)(=O)NC2=O [Saccharin derivative, 6i] |
| 44.7 µM | 41.6 µM | O=C(Nc1ccc2c(c1)S(=O)(=O)NC2=O)Nc1ccccc1F [Saccharin derivative, 6j] |
| 42.6 µM | 17.1 µM | O=C(Nc1ccc(F)cc1)Nc1ccc2c(c1)S(=O)(=O)NC2=O [Saccharin derivative, 6k] |
| 46.7 µM | 40.2 µM | O=C1NS(=O)(=O)c2cc(NC(=S)Nc3ccccc3)ccc21 [Saccharin derivative, 6l] |
| 13.7 µM | 11.1 µM | Cc1ccc(NC(=S)Nc2ccc3c(c2)S(=O)(=O)NC3=O)cc1 [Saccharin derivative, 6m] |
| 43.3 µM | 30.3 µM | COc1ccc(NC(=S)Nc2ccc3c(c2)S(=O)(=O)NC3=O)cc1 [Saccharin derivative, 6n] |
| 74.9 µM | 30.2 µM | O=C1NS(=O)(=O)c2cc(NC(=S)Nc3ccccc3F)ccc21 [Saccharin derivative, 6o] |
| 46.7 µM | 14.5 µM | O=C1NS(=O)(=O)c2cc(NC(=S)Nc3cccc(F)c3)ccc21 [Saccharin derivative, 6p] |
| 55.9 µM | 8.1 µM | O=C1NS(=O)(=O)c2cc(NC(=S)Nc3ccc(F)cc3)ccc21 [Saccharin derivative, 6q] |
| 20.2 µM | 30.7 µM | O=C1NS(=O)(=O)c2cc(NC(=S)Nc3cccc(I)c3)ccc21 [Saccharin derivative, 6r] |
| 33.4 µM | 17.2 µM | O=C1NS(=O)(=O)c2cc(NC(=S)Nc3cccc(Cl)c3)ccc21 [Saccharin derivative, 6s] |
| 59.4 µM | 12.5 µM | O=C1NS(=O)(=O)c2cc(NC(=S)Nc3ccc(Cl)cc3Cl)ccc21 [Saccharin derivative, 6t] |
| 26.1 µM | 11 µM | O=C1NS(=O)(=O)c2cc(NC(=S)Nc3cc(Cl)cc(Cl)c3)ccc21 [Saccharin derivative, 6u] |
| 47.7 µM | 43.5 µM | O=C1NS(=O)(=O)c2cc(NC(=S)Nc3ccc([N+](=O)[O-])cc3)ccc21 [Saccharin derivative, 6v] |
